Results: patent publication US11161831B2, “Methods and compositions for treatment of muscle wasting, muscle weakness, and/or cachexia” (Baylor College of Medicine, priority 2013, dated 2021)

Tests used:
[1] = system: mice with CKD; experiment: CKD-induced muscle wasting in mice (subtotal nephrectomy); assay type: in vivo
Experimental: FIGS. 21A-21G provides a small molecule inhibitor of Stat3 activation, C188-9, that blocks CKD-induced muscle wasting. FIG. 21A. Sham or CKD mice were treated with C188-9 or D5W (diluent) for 14 days. Representative western blots of p-Stat3, Stat3 and GAPDH from lysates of gastrocnemius muscles are shown (n=8 mice/group). FIG. 21B. Differences in body weights of pair-fed, sham or CKD mice treated with C188-9 or D5W at baseline and after 7 or 14 days of treatment (*p<0.05 vs. D5W sham). FIGS. 21C & 21D. Average weights of mixed fiber gastrocnemius and tibialis anterior (TA) muscles from both legs (n=7 mice/group). FIG. 21E. Cryosections of TA muscles were immunostained with anti-laminin to identify the muscle basement membrane. The myofiber areas were measured and the myofiber size distribution was calculated from the areas of ˜500 myofibers assessed by an observer blinded to treatment group (n=4 pairs of mice). FIG. 21F. Muscle force of each mouse studied in FIG. 3C was measured on four consecutive days (Experimental Procedures; n=7 mice/group). G&H. At 2 weeks of C188-9 or D5W treatment, protein synthesis (FIG. 21G) and degradation (FIG. 21H) were measured (n=8 pairs of mice; *p<0.05 vs. D5W). Values are means±SEM.
FIG. 23A. Representative western blots of the indicated proteins from lysates of gastrocnemius muscles of control (Stat3flox/flox) or Stat3 KO sham or CKD mice. FIGS. 23B & 23C. mRNAs of myostatin (FIG. 23B) and C/EBPδ in muscles of sham or CKD mice analyzed by RT-PCR (n=4 mice/group; *p<0.05 vs. Stat3flox/flox sham). FIG. 23D. Representative western blots of the indicated proteins in lysates of gastrocnemius muscles of STZ vs. WT control mice (n=5 pairs). FIG. 23E. Sham or CKD mice were treated with C188-9 or D5W (diluent) for 14 days. Representative western blots of indicated proteins from lysates of gastrocnemius muscles are shown (n=8 mice/group). FIGS. 23F & 23G. mRNA levels of myostatin (FIG. 23F) and C/EBPδ (FIG. 23G) analyzed by RT-PCR and corrected for GAPDH (n=3 mice/group: wild-type mice without CKD; sham mice treated with C188-9 or D5W; mice with CKD treated with C188-9 or D5W; *p<0.05 vs. WT non-CKD). Values are means±SEM. FIG. 6. C/EBPδ and myostatin mediate CKD or Stat3-induced muscle wasting. A. Body weights of wild type or homo- or hetero-C/EBPδ KO mice following creation of CKD. Values are expressed as a percentage of basal body weight (mean±SEM; n=9 for WT mice; n=11 for C/EBPδ−/−; n=11 for C/EBPδ+/− mice; *p<0.05 vs. WT CKD). FIG. 23B. Survival was calculated as the percentage of mice surviving at 3 weeks after CKD or after sham surgery (n=20 for WT; n=25 for C/EBPδ−/−; n=21 for C/EBPδ+/−; *p<0.05 vs. C/EBPδ−/− CKD). FIG. 23C. Average weights from both legs of red fiber (soleus) or white fiber (EDL) muscles (mean±SEM; n=10 mice/group; *p<0.05 vs. WT CKD). FIG. 23D. Representative western blots of p-Stat3 and myostatin from muscles of CKD or sham-operated mice of the following groups: C/EBPδ−/−, C/EBPδ+/− or control (WT). FIG. 23E. Cryosections of gastrocnemius muscles from mice that were transfected with lentivirus expressing Stat3C-GPF or GFP and treated with anti-myostatin inhibitor or PBS. The sections were immunostained with p-Smad2/3 (red, lower panel). […] FIG. 23F. GFP-positive areas in myofibers were measured and the mean myofiber sizes of each group are shown (left panel). The percentage of p-Smad2/3 positive nuclei to total nuclei was calculated (right panel; mean±SEM, *p<0.05 vs. GFP/PBS).
All animal experiments and procedures were approved by the Baylor College of Medicine Institutional Animal Care and Use Committee (IACUC). Subtotal nephrectomy was used to create CKD in mice (Zhang et al., 2011; May et al., 1987). To induce diabetes, 12-week-old Stat3^flox/flox and Stat3 KO mice were injected intraperitoneally with 2 doses of 150 mg/kg/d STZ (Sigma-Aldrich) in 0.1 M citrate buffer (pH 4). Control mice were injected with the citrate buffer. […]

[2] = system: Janus kinases (Jak1, Jak2) or Src family kinases (Hck, Lyn or Srms); conditions: 10 μM concentration; cited from earlier work
[3] = CKD mice, 6.25 mg/kg subcutaneously daily for 14 days vs. D5W
[4] = CKD mice, at 2 weeks, EDL muscles

SMILES: COc1ccc(S(=O)(=O)Nc2cc(-c3c(O)ccc4ccccc34)c(O)c3ccccc23)cc1 [C188-9]
- body weights [1, 3]: significantly greater
- level of p-Stat3 in muscle [1, 3]: decreased
- Akt phosphorylation in muscle ([1]; CKD mice, 14 days): higher
- CKD-induced phosphorylation of p-Smad2/3 ([1]; CKD mice, 14 days): blocked
- grip strength ([1]; CKD mice, 14 days vs. D5W): improved grip strength
- C/EBPδ and myostatin proteins in muscle ([1]; CKD mice, 14 days, gastrocnemius lysates): decreased
- CKD-stimulated mRNA expressions of C/EBPδ and myostatin ([1]; CKD mice, RT-PCR): suppressed
- weights of gastrocnemius and tibialis anterior muscles ([1]; CKD mice, after 14 days vs. D5W): greater
- muscle protein degradation [1, 4]: decreased protein degradation
- muscle protein synthesis [1, 4]: improved muscle protein synthesis
- C/EBPδ or myostatin mRNAs or proteins in muscle ([1]; control mice without CKD): did not change
- food intake, body weight, muscle mass or grip strength ([1]; control, wild type mice without CKD): did not significantly affect
- inhibition of upstream tyrosine kinases Jak1, Jak2, Hck, Lyn or Srms [2]: did not inhibit
